Target: Xanthine dehydrogenase/oxidase (Homo sapiens, UniProt P47989)
Test: Inhibition of xanthine oxidase

Xanthine dehydrogenase/oxidase, sequence (P47989 whole entry): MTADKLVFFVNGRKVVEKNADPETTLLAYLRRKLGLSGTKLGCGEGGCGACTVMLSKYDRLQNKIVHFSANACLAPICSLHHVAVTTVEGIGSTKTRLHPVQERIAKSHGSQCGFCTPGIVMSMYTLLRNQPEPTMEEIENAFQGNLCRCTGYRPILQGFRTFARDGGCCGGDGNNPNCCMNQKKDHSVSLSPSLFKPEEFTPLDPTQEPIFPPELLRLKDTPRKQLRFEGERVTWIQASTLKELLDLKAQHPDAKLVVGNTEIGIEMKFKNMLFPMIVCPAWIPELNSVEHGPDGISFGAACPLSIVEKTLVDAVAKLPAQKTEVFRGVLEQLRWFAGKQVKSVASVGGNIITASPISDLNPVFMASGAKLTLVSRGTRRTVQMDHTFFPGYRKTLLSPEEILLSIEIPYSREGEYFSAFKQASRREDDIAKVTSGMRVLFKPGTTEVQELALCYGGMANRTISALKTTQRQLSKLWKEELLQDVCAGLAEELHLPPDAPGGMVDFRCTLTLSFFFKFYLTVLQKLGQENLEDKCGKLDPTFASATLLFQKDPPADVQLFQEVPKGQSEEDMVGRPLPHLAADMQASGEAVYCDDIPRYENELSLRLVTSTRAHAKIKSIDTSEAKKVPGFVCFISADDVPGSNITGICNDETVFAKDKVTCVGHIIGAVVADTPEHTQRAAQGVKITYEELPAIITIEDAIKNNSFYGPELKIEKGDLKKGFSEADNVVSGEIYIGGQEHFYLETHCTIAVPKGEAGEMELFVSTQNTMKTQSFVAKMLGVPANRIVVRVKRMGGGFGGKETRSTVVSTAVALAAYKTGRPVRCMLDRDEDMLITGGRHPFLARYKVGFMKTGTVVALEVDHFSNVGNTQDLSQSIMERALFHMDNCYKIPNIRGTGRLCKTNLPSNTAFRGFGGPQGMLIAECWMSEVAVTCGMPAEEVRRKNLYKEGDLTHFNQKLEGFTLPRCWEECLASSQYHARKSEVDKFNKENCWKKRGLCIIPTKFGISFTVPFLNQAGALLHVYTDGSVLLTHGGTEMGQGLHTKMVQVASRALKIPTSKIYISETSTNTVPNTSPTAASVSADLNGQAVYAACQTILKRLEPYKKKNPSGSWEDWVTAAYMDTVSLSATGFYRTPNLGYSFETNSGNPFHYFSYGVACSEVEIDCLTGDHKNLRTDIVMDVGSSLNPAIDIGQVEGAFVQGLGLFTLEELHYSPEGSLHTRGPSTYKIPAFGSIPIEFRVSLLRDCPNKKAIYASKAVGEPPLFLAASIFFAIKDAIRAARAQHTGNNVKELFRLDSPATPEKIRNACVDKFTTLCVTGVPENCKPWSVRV

Ki: 93.9 µM
Structure (SMILES): COc1cc(/C=C/C=O)ccc1O [CONIFERYL ALDEHYDE]

Reference: ChEMBL document CHEMBL1154593, “Insights into the inhibition of xanthine oxidase by curcumin” (Bioorg Med Chem Lett, 2009)
